Patent publication US8232253B2, “Treatment of lung cancer” (Ramot at Tel-Aviv University Ltd., priority 2006, dated 2012)

Columns and labels:
[1] = test system: human lung cancer cell lines A549, H23, HTB54, H-1299, HTB-58 (SK-MES-1); assay: Growth inhibition of human lung cancer cell lines by direct cell counting; type: cell-based; details: range over A549, H23, HTB54, H-1299, HTB-58 (SK-MES-1), read-out: IC50 of growth inhibition, depending on the cell line
Procedure: FTS was provided by Concordia Pharmaceuticals, Inc. (Ft. Lauderdale, Fla.). All cell lines were obtained from American Type Culture Collection (“ATCC”) (Manassas, Va.). A549 cells, non-small-cell lung carcinoma (CCL, ATCC) cells, were cultured in Kaighn's modification of Ham's F-12 medium containing 1.5 g/l sodium bicarbonate, 10% fetal calf serum (FCS), 100 U/ml penicillin, and 100 μg/ml streptomycin. HTB54 lung carcinoma cells were cultured in McCoy's 5A medium with 10% FCS, 100 U/ml penicillin, and 10 μg/ml streptomycin. HTB-58 (SK-MES-1, ATCC), a human lung squamous cell carcinoma cell line, was cultured in Eagle's minimum essential medium with 2 mM L-glutamine and Earle's BSS, 1.5 g/l sodium bicarbonate, 0.1 mM non-essential amino acids, 1 mM sodium pyruvate, 10% FCS, 100 U/ml penicillin, and 100 μg/ml streptomycin. […] Cells were treated with the indicated concentrations of FTS (Concordia Pharmaceuticals, Sunrise Fla.) or with 0.1% Me2SO4 (DMSO) (vehicle) 24 h after plating and were counted 5 days later. Dead cells were counted after addition of Hoechst 33258 dye (Sigma-Aldrich, St. Louis, Mo.); 1 μg/ml) to vehicle-treated control cultures or to cultures treated for 24 or 48 h with 75 μM FTS. Fluorescence images were collected 5 min after the dye was added. […]

A549 cells = assay: Immunofluorescence of cytoskeleton (F-actin, vinculin) and cell morphology; type: cell-based, human; details: 75 μM FTS, 48 h
Procedure: A549 cells were plated on glass cover slips (2×10^4 cells/well in 6-well plates), incubated for 24 h in medium containing 5% FCS, and then incubated for 48 h with or without 75 μM FTS. The cells were fixed and permeabilized at room temperature by successive incubations with 3.7% formaldehyde (20 min) and 0.2% Triton X-100 in PBS (5 min), then washed for 5 min with UB buffer (150 mM NaCl, 10 mM Tris pH 7.6, and 0.2% sodium azide in PBS) and blocked with 2% BSA in UB (UBB, 5 min). The fixed cells were incubated successively with naïve goat IgG for 30 min (200 μg/ml, Jackson ImmunoResearch Laboratories, West Grove, Pa.), anti-vinculin Ab for 1 h (1:400, Sigma-Aldrich), goat anti-mouse Cy2-conjugated Ab for 1 h (1:200, Jackson), and rhodamine-labeled phalloidin for 1 h (1:1000, Sigma-Aldrich). Between each of the above steps the cells were washed for 30 min with UBB. Lastly, the cover slips were washed with UB, dried, and mounted onto the slides with Muviol. F-actin (red) and vinculin (green) were visualized with a Zeiss LSM 510 confocal microscope fitted with non-leaking green and red fluorescence filters. Co-localization was assessed using the co-localization function of the LSM 510 software. […]

phospho-ERK = assay: Phospho-ERK immunoblotting in A549 cells; type: cell-based, human
Procedure: A549 cells were incubated for 24 or 48 h with or without FTS, as described above, and then lysed with lysis buffer as described in Haklai, R., Gana-Weisz, M., Elad, G., et al., Biochemistry 37:1306-14 (1998). The apparent amounts of K-Ras-GTP in 0.5 mg protein of total cell lysates were determined by the glutathione-S-transferase (GST)-RBD (Ras-binding domain of Raf) pull-down assay, as described in (Elad-Sfadia, G., Haklai, R., Ballan, E., Gabius, H. J., Kloog, Y., J Biol Chem 277:37169-75 (2002). The apparent amounts of Rac1-GTP and of RhoA-GTP, each in 2 mg protein of total cell lysates, were determined, respectively, by pull-down assays with GST-PBD (Rac1-binding domain of PAK1)-conjugated and GST-Rhotekin BD (Rho-binding domain of Rhotekin)-conjugated beads [Benard, V., Bohl, B. P., Bokoch, G. M, J Biol Chem 274:13198-204 (1999); Fiordalisi, J. J., Keller, P. J., Cox, A. D., Cancer Res 66:3153-61 (2006). […] Levels of phospho-ERK and phospho-Akt were determined by immunoblotting [Haklai, R., Gana-Weisz, M., Elad, G., et al., supra.] using rabbit anti phospho-ERK1/2 Ab (Santa Cruz Biotechnology, Santa Cruz, Calif.) and rabbit anti phospho-Akt Ab (Cell Signaling, Beverly, Mass.). Protein bands were visualized by enhanced chemiluminescence and quantified by densitometry using ImageJ computer software (National institutes of Health, Bethesda, Md.). […]

IC50 [1]: 30 to 75 µM
SMILES: CC(C)=CCC/C(C)=C/CC/C(C)=C/CSc1ccccc1C(=O)O [FTS, S-farnesylthiosalicylic acid]
cells that had undergone changes in cell morphology (A549 cells): more than 80%
inhibition of phospho-ERK level (phospho-ERK): 33±2%
